This is an account of results in patent publication US8476430B2, “Fused heterocyclic compounds useful as kinase modulators” (Bristol-Myers Squibb Company, priority 2008, dated 2013).

One test addresses T1, human recombinant Btk (Homo sapiens, UniProt Q06187).
T1 construct: purchased Invitrogen Corporation
In words: Human recombinant Btk enzyme assay. In kind it is biochemical. The following applies: human recombinant Btk 1 nM, ATP 20 μM, 60 min room temperature. The protocol:
Human Recombinant Btk Enzyme Assay
To V-bottom 384-well plates were added test compounds, human recombinant Btk (1 nM, Invitrogen Corporation), fluoresceinated peptide (1.5 μM), ATP (20 μM), and assay buffer (20 mM HEPES pH 7.4, 10 mM MgCl2, 0.015% Brij35 and 4 mM DTT in 1.6% DMSO), with a final volume of 30 μL. After incubating at room temperature for 60 min, the reaction was terminated by adding 45 μl of 35 mM EDTA to each sample. The reaction mixture was analyzed on the Caliper LABCHIP® 3000 (Caliper, Hopkinton, Mass.) by electrophoretic separation of the fluorescent substrate and phosphorylated product. Inhibition data were calculated by comparison to no enzyme control reactions for 100% inhibition and no inhibitor controls for 0% inhibition. Dose response curves were generated to determine the concentration required inhibiting 50% of kinase activity (IC50). Compounds were dissolved at 10 mM in dimethylsulfoxide (DMSO) and evaluated at eleven concentrations.

For another test, the system named is Ramos RA1 B cells. In words: Ramos FLIPR assay. In kind it is cell-based. The note with it: Homo sapiens, inhibition of peak intracellular calcium after F(ab')2 anti-IgM/IgG stimulation, read-out: Human Ramos Cell FLIPR (IC50 μM). As to the method: Ramos RA1 B cells (ATCC® CRL-1596) at a density of 2×10^6 cells/ml in RPMI minus phenol red (Invitrogen 11835-030) and 50 mM HEPES (Invitrogen 15630-130) containing 0.1% BSA (Sigma A8577) were added to one half volume of calcium loading buffer (BD bulk kit for probenecid sensitive assays, #640177) and incubated at room temperature in the dark for 1 hour. Dye-loaded cells were pelleted (Beckmann GS-CKR, 1200 rpm, RT, 5 minutes) and resuspended in RT RPMI minus phenol red with 50 mM HEPES and 10% FBS to a density of 1×10^6 cells/ml. 150 μl aliquots (150,000/well) were plated into 96 well poly-D-lysine coated assay plates (BD 35 4640) and briefly centrifuged (Beckmann GS-CKR 800 rpm, 5 minutes, without brake). 50 μal compound dilutions in 0.4% DMSO/RPMI minus phenol red+50 mM HEPES+10% FBS were added to the wells and the plate was incubated at RT in the dark for 1 hour. Assay plate was briefly centrifuged as above prior to measuring calcium levels.
Using the FLIPR1 (Molecular devices), cells were stimulated by adding 50 μl 200 μg/ml F(ab′)2 anti-IgM/IgG (Jackson ImmunoResearch 109-006-127) diluted in 1×HBSS (Invitrogen 14025-076), 50 mM HEPES, 0.1% BSA. Changes in intracellular calcium concentrations were measured for 180 seconds and percent inhibition was determined relative to peak calcium levels seen in the presence of F(ab′)2 anti-IgM/IgG only.

pIC50: −log10 of the molar value.

T1 sequence (Q06187 whole entry): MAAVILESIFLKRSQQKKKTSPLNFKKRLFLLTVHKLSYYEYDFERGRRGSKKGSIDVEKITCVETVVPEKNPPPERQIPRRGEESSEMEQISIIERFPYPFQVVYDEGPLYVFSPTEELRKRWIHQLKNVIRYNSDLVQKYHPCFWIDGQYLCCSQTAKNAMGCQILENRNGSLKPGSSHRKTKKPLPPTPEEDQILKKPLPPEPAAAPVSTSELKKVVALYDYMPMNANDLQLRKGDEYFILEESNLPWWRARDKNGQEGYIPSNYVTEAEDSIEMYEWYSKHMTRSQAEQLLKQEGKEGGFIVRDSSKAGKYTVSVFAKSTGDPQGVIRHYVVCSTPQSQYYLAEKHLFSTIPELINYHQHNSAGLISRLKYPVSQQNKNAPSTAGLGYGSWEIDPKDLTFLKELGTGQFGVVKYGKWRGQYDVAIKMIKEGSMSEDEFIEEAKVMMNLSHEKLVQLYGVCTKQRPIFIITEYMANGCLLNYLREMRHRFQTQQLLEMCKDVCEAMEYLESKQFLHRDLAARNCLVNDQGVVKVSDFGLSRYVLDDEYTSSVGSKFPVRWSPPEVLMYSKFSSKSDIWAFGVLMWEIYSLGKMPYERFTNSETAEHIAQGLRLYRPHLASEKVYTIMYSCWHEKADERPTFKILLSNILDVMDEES

By pIC50 is commonly meant the IC50 on a negative log10 scale, so that one unit is a factor of ten. Broadly, the IC50 is the concentration needed to halve the response being measured. Regarding `Cc1c(NC(=O)c2ccc(C(C)(C)C)cc2)cccc1-c1nc(Nc2ccc(C(=O)N3CCOCC3)cc2)c2nccn2n1` [Example 1, 4-tert-Butyl-N-(2-methyl-3-(4-(4-(morpholine-4-carbonyl)phenylamino)imidazo[1,2-f][1,2,4]triazin-2-yl)phenyl)benzamide], the pIC50 at human recombinant Btk was 7.34. The IC50 in the test on Ramos RA1 B cells was determined as 0.028 µM.
